# Patent US20240180884A1, “PYRIDOSTIGMINE FOR USE IN THE TREATMENT OF COVID-19” (priority 2021, published 2024)
# Test system: SARS-COV-2 infection (severe COVID-19)
# Test: Randomized, parallel, double-blind, placebo-controlled clinical trial of oral pyridostigmine in adults hospitalized due to severe COVID-19
# Format: in vivo, human
# Conditions: for Primary outcome: Invasive mechanical ventilation or death - %: N = 94, day 28, placebo 23.4%; for Death - % (28-day case fatality): day 28, 60 mg/day orally, placebo 20.2%; for Discharge - % (probability of being discharged from the hospital within 28 days of randomization): placebo 79.8%
# Description: The trial was conducted to reduce the incidence of mechanical ventilation or death in adults hospitalized due to severe COVID-19. A randomized, parallel, double-blind, placebo-controlled clinical trial was conducted. Participants were randomized (1:1 ratio) to receive oral pyridostigmine at a dose of 60 mg/day orally or an identical placebo (drug-grade starch) until the occurrence of any of the a priori specified outcomes, the hospital discharge or a maximum period of 14 days of hospital confinement, whichever comes first. The study was externally and independently watched and monitored by an independent Data and Security Monitoring Committee (DSMB). The study was conducted in two parts: an initial phase aimed at determining safety (from May 5 to Jul. 4, 2020) in which the first 44 participants were evaluated, followed by a part of a phase aimed at evaluating the effect, or lack thereof, of pyridostigmine in patients with severe COVID-19 (Jul. 5, 2020 to Jan. 30, 2021).
# Adult hospitalized patients (>18 years) with confirmed SARS-COV-2 infection based on a positive RT-PCR test for SARS-COV-2 ribonucleic acid in a respiratory sample (nasopharyngeal or nasal swab) and a imaging study compatible with pneumonia, and at least one criterion of high risk of death.
# Participants were randomized 1:1, with parallel allocation. Demographic information was collected from the participants at baseline, including age, sex, presence of comorbidities (including diabetes mellitus, hypertension, obesity, cardiovascular disease, lung disease or other chronic medical conditions). Participants who had already been discharged from the hospital by day 28 were contacted by phone to assess their vital and functional status.
# Based on early evidence from China, an estimated 25% of patients hospitalized with severe SARS-COV-2 infection would develop complications that would lead to the need for invasive mechanical ventilation or death. Consequently, it is estimated that this sample size would allow us to identify with a power of 80% a reduction in the need for invasive mechanical ventilation or death of 10% in the group that received pyridostigmine compared to the group that received placebo, using a two-tailed […] at the significance level of 0.05. […] Based on the results of said analysis and with the data presented here, it was decided to terminate the study early.
# The study was carried out at Instituto Nacional de Ciencias Médicas y Nutrición Salvador Zubirán (principal center) and Instituto Nacional de Cardiología Ignacio Chávez (recruiting center), two COVID-19 designated hospitals in Mexico City, Mexico.
# An intention-to-treat analysis was performed comparing the proportion of outcomes between both therapeutic arms using the X^2 test. A multivariate logistic regression model was used to evaluate the variables associated with primary outcomes.
# [1] = at the proposed dose of pyridostigmine (60 mg/day)
# [2] = secondary outcome, 60 mg/day orally, N = 94
smiles,measurement,setting,value
CN(C)C(=O)Oc1ccc[n+](C)c1 [Pyridostigmine],Median time (IQR) from randomization to discharge,"60 mg/day orally, N = 94",5 days
same,Rate of adverse events,[1],5-6%
same,Serious adverse effects,[1],no serious adverse effects reported
same,Primary outcome: Invasive mechanical ventilation or death - %,"hospitalized severe COVID-19 patients, 60 mg/day orally up to 14 days, p=0.03",(11.7) %
same,Primary outcome: Invasive mechanical ventilation or death - %,"hospitalized severe COVID-19 patients, 60 mg/day orally up to 14 days, p=0.03, listed as pyridostigmine",11.7%
same,Primary outcome: Invasive mechanical ventilation or death - no.,"hospitalized severe COVID-19 patients, 60 mg/day orally up to 14 days, N = 94, intention to treat, day 28",11
same,"Death after invasive mechanical ventilation (text, among ventilated patients)","placebo 57.1%, no difference between groups",33.3%
same,"Risk index, 28-day case fatality","pyridostigmine vs. placebo, 95% CI 0.16 to 0.7, p=0.01",0.33
same,"Hazard ratio, invasive mechanical ventilation or death on day 28","pyridostigmine vs. placebo, 95% CI 0.24 to 0.94, p=0.03",0.47
same,Death after invasive mechanical ventilation - no.,[2],2
same,Invasive mechanical ventilation - %,[2],(6.4) %
same,Invasive mechanical ventilation - no.,[2],6
same,Invasive mechanical ventilation - %,"secondary outcome, 60 mg/day orally, N = 94, listed as pyridostigmine",6.3%
same,Death - no.,"secondary outcome, before day 28, 60 mg/day orally, N = 94",7
same,Death - % (28-day case fatality),"secondary outcome, N = 94, p=0.01",(7.5) %
same,Death - % (28-day case fatality),"secondary outcome, N = 94, p=0.01, listed as pyridostigmine",7.4%
same,Death after invasive mechanical ventilation - %,"secondary outcome, percent of all N = 94",(2.1) %
same,Discharge - no.,"secondary outcome, within 28 days of randomization, N = 94",87
same,Discharge - % (probability of being discharged from the hospital within 28 days of randomization),"within 28 days of randomization, N = 94, p=0.01",(92.6) %
same,Discharge - % (probability of being discharged from the hospital within 28 days of randomization),"within 28 days of randomization, N = 94, p=0.01, listed as pyridostigmine",92.6%
